Laboratory results from PMC6934184, “Selective DNA-PKcs inhibition extends the therapeutic index of localized radiotherapy and chemotherapy” (The Journal of Clinical Investigation, 2019).

Biological target: T1, KIT D820E (Homo sapiens, UniProt P10721, D820E)
T1 construct: purchased Thermo Fisher Scientific (Life Technologies) SelectScreen
Test: SelectScreen LanthaScreen
Format: binding
Details: read-out: % displacement
In short: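 Percent values come from Thermo SelectScreen profiling of NU5455, combining activity and binding assays. CSF1R was run in Z'LYTE format at Km app ATP, and CAMK1 in Adapta format with ATP listed at 10.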

T1 sequence (P10721 26-976 D820E): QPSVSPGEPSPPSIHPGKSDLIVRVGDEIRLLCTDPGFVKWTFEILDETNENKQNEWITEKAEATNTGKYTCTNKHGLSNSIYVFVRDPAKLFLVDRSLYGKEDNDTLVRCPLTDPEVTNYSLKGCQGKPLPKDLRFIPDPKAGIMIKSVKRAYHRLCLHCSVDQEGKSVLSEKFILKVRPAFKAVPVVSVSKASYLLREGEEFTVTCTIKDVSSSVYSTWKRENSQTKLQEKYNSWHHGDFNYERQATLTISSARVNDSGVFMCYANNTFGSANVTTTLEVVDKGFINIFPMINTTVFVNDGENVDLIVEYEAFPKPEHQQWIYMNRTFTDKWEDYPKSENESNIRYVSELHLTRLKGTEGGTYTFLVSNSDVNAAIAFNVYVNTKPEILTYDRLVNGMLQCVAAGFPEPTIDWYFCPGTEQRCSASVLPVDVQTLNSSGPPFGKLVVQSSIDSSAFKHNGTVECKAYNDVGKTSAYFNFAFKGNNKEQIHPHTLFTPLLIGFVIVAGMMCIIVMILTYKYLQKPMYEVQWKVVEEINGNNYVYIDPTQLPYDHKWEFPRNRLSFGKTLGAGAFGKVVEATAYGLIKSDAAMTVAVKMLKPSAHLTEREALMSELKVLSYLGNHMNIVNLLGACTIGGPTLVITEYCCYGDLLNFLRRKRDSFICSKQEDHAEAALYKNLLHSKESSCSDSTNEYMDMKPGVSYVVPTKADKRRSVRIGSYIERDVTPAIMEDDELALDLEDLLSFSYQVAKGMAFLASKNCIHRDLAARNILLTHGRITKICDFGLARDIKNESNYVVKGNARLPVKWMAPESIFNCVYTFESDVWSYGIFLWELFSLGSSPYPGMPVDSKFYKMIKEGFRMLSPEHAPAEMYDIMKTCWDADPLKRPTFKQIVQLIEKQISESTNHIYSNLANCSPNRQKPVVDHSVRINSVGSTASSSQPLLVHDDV

## CN(C(=O)CN1CCOCC1)c1ccc2sc3c(-c4cccc5c(=O)cc(N6CC7CCC(C6)O7)oc45)cccc3c2c1 [NU5455]
  inhibition at 1 µM: 1.3%
